Laboratory results published in PubChem BioAssay (NCI).
Several values for one entry are separate records, joined by “and”; a condition that tells them apart may be missing. Equal entries are not always repeated.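 Briefly, cells in 96-well plates were exposed to five compound concentrations for 48 h, and endpoints were estimated by linear interpolation. GI50 = concentration required for 50% inhibition of growth. TGI: concentration producing complete growth inhibition.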

Key:
Assay in all cases: NCI anticancer screen, dose series, 48 h
[1] = system: CCRF-CEM leukemia
[2] = system: HCC-2998 colon
[3] = system: HCT-15 colon
[4] = system: HT29 colon
[5] = system: MALME-3M melanoma
[6] = system: NCI-H226 lung
[7] = system: RPMI-8226 leukemia
[8] = system: SF-295 CNS
[9] = system: TK-10 renal
[10] = system: UO-31 renal

Row | SMILES | TGI [1] | TGI [2] | TGI [3] | TGI [4] | TGI [5] | TGI [6] | TGI [7] | TGI [8] | TGI [9] | TGI [10] | GI50 [1] | GI50 [2] | GI50 [3] | GI50 [4] | GI50 [5] | GI50 [6] | GI50 [7] | GI50 [8] | GI50 [9] | GI50 [10]
1 | NCC(=O)NC(CO)C(=O)O (stereo not given) | > 100 µM | > 100 µM | > 100 µM | > 100 µM | > 100 µM | > 100 µM | > 100 µM | > 100 µM | > 100 µM | > 100 µM | – | – | – | – | – | – | – | – | – | –
2 | COc1cccc2cc(-c3nc(C4CCC(C(=O)O)CC4)n4ncnc(N)c34)[nH]c12 (stereo not given) | 16.2 µM and > 10 µM | 35.3 µM and > 10 µM | > 100 µM | 79.9 µM and > 10 µM | 0.354 µM and 0.675 µM | > 7.79 µM | 3.02 µM and > 5.2 µM | 2.1 µM and 4.36 µM | 1.63 µM and 6.11 µM | 2.13 µM and 3.35 µM | 0.247 µM and 0.816 µM | 0.451 µM and 0.729 µM | 0.558 µM and 0.973 µM | 1.2 µM and 2.52 µM | 0.0296 µM and 0.0752 µM | 0.347 µM and 0.397 µM | 0.185 µM and 0.303 µM | 0.233 µM and 0.647 µM | 0.15 µM and 0.411 µM | 0.129 µM and 0.21 µM
3 | CNC(=O)OCc1cc2ccncc2c2c1[nH]c1ccccc12 | > 100 µM | > 100 µM | > 100 µM | > 100 µM | > 100 µM | > 100 µM | > 100 µM | > 100 µM | > 100 µM | > 100 µM | – | – | – | – | – | – | – | – | – | –
4 | C=CCCC(O)c1ccc(CCCCCCCCCCC)o1 (stereo not given) | 40 µM | 36.5 µM | 31.5 µM | 33.5 µM | 33.8 µM | 33.1 µM | 38.6 µM | 30.4 µM | 31.9 µM | 36.1 µM | 19.3 µM | 18.4 µM | 17 µM | 16.1 µM | 15.6 µM | 17.7 µM | 14 µM | 14.2 µM | 15.8 µM | 20.9 µM
5 | N#Cc1nc(Nc2ccc(Cl)cc2)sc1N | > 100 µM | 14.8 µM | > 94.6 µM | > 51.9 µM | 66.1 µM | > 71.7 µM | > 65.6 µM | 42 µM | > 76.6 µM | 26.8 µM | – | – | – | – | – | – | – | – | – | –
6 | O=[N+]([O-])c1ccc(NN=C2c3ccccc3Cc3ccccc32)c([N+](=O)[O-])c1 | 18.2 µM | > 100 µM | > 100 µM | 22.2 µM | > 100 µM | > 100 µM | > 100 µM | > 100 µM | > 100 µM | > 100 µM | – | – | – | – | – | – | – | – | – | –
7 | O=C1CCCC(=O)C1C(=O)c1ccc(C(F)(F)F)cc1[N+](=O)[O-] | > 100 µM | > 100 µM | > 100 µM | > 100 µM | > 100 µM | > 100 µM | > 100 µM | > 100 µM | > 100 µM | > 100 µM | > 100 µM | > 100 µM | > 100 µM | > 100 µM | > 100 µM | > 100 µM | > 100 µM | > 100 µM | > 100 µM | > 100 µM
8 | COc1cc(/C=N/Nc2ncnc3c2cnn3Cc2ccccc2)ccc1O | > 25 µM | > 25 µM | > 25 µM | > 25 µM | > 25 µM | > 25 µM | > 25 µM | > 25 µM | 19.1 µM | 11.9 µM | > 6.7 µM | 15.2 µM | > 25 µM | 14.9 µM | 7.14 µM | 10.3 µM | > 18.5 µM | > 25 µM | 6.39 µM | 1.93 µM
9 | COc1cc(C(=O)Nc2cc(O)c(C/C=C(\C)CCC=C(C)C)c(O)c2)cc2c1O[C@]1(C)CC[C@@H](O)C(C)(C)[C@H]1C2 | > 22.7 µM | 16.4 µM | 3.38 µM and 3.37 µM | 5.43 µM and 3.79 µM | 7.46 µM | 29 µM | 0.0806 µM and 0.0958 µM | 0.0135 µM and 0.0515 µM | 28.9 µM | 0.6 µM and 1.29 µM | 0.0438 µM and 0.0384 µM | 1.49 µM and 2.13 µM | 0.471 µM and 0.628 µM | 1.42 µM and 0.955 µM | 0.3 µM and 1.24 µM | 3.47 µM | 0.00911 µM and 0.0197 µM | 0.00307 µM and < 0.012 µM | 2.54 µM | 0.0786 µM and 0.237 µM
10 | COc1cc2c(cc1OC)C1(c3ccccc3)ON=C(c3ccccc3)N1CS2 (stereo not given) | > 100 µM | > 100 µM | > 100 µM | > 100 µM | > 100 µM | > 100 µM | > 100 µM | > 100 µM | > 100 µM | > 100 µM | – | – | – | – | – | – | – | – | – | –
11 | Cc1ccc2nc(CC(=O)c3ccc4ccccc4c3)c(=O)[nH]c2c1 | > 100 µM | > 100 µM | > 100 µM | > 100 µM | > 100 µM | > 100 µM | > 100 µM | > 100 µM | > 100 µM | > 100 µM | – | – | – | – | – | – | – | – | – | –
12 | COc1cc([N+](=O)[O-])c(OC)cc1-c1nc2n(c1/C(N)=N/C(=N)N)CCS2 | > 100 µM | > 100 µM | > 100 µM | > 100 µM | 60.6 µM | > 100 µM | > 100 µM | > 100 µM | 96.4 µM | > 100 µM | > 100 µM | > 100 µM | > 100 µM | > 100 µM | 18.7 µM | > 100 µM | > 100 µM | 37.6 µM | 20.3 µM | > 100 µM
13 | O=C(Nc1ccc(O)c(NS(=O)(=O)c2ccc(F)cc2)c1)c1ccc(-c2ccccc2)cc1 | 13 µM | 45.3 µM | 17.3 µM | 30.9 µM | 23.9 µM | 23.8 µM | 18.2 µM | 24 µM | 30.3 µM | > 100 µM | 2.96 µM | 17.5 µM | 4.36 µM | 14.1 µM | 11.5 µM | 4.96 µM | 2.87 µM | 9.71 µM | 11.9 µM | 3.35 µM
14 | O=C(CC(=O)c1cccc([N+](=O)[O-])c1)C(=O)Nc1nc([N+](=O)[O-])cs1 | > 100 µM | > 100 µM | > 100 µM | > 100 µM | > 100 µM | > 100 µM | > 100 µM | > 100 µM | > 100 µM | > 100 µM | – | – | – | – | – | – | – | – | – | –
15 | Cc1nc2sc(C(=O)Nc3cccc(Cl)c3C)c(N)c2cc1C(=O)c1ccccc1 | > 50 µM | > 50 µM | > 50 µM | > 17.9 µM | > 50 µM | > 50 µM | > 15.9 µM | > 10.6 µM | > 50 µM | > 50 µM | 0.18 µM | 1.01 µM | 0.226 µM | 0.202 µM | 0.811 µM | 1.28 µM | 0.249 µM | 0.179 µM | 2.48 µM | 0.408 µM
